Measurements from paper PMC6891475, “Synthesis and Antiproliferative Evaluation of Novel Hybrids of Dehydroabietic Acid Bearing 1,2,3-Triazole Moiety” (Molecules, 2019).

How the values were obtained:
[1] = test system: human cervical cancer cells (HeLa); assay: MTT antiproliferative assay, HeLa; type: cell-based; conditions: mean ± SD from three independent experiments
Procedure: (§1) The antiproliferative activities of the 16 library members were tested against four human cancer cell lines including human nasopharyngeal carcinoma cell (CNE-2), human liver cancer cell (HepG2), human hepatocellular carcinoma cell (BEL-7402), human cervical cancer cells (HeLa), and human normal liver cell (HL-7702) using MTT assay according the reported literature method.
(§2) All the compounds (3a–p) were evaluated for their in vitro cytotoxicity against the following human cancer cell lines including CNE-2, HepG2, BEL-7402, Hela and normal liver cell HL-7702 by MTT assay. The cell lines were plated in 96-well plates at density of 5×10^3 cells/well and maintained at 37 °C with 5% CO2. The target compounds 3a–p dissolved in DMSO and further dilutions were made with DMEM, with cisplatin as the positive control. The concentration of the compounds used were 0.8, 4, 20, 100 μM. After the treatment of another 48 h and 72 h with different concentration of the samples (0.8, 4, 20, 100 μM), Therewith, 20 μL of MTT (5 mg/mL) was added and incubated for about 4 h. The medium was thrown away and the purple formazan precipitations were dissolved in 150 μL DMSO. The O. D. Value was measured at 490 nm in an enzyme labeling instrument.

[2] = test system: human nasopharyngeal carcinoma cell (CNE-2); assay: MTT antiproliferative assay, CNE-2; type: cell-based
Procedure: as §1, §2

[3] = test system: human normal liver cell (HL-7702); assay: MTT cytotoxicity assay, HL-7702 normal cells; type: cell-based; conditions: for IC50: mean ± SD from three independent experiments; for cytotoxicity on the human normal liver cell (HL-7702), in words: qualitative statement
Procedure: as §1, §2

[4] = test system: human hepatocellular carcinoma cell (BEL-7402); assay: MTT antiproliferative assay, BEL-7402; type: cell-based
Procedure: as §1, §2

[5] = test system: human liver cancer cell (HepG2); assay: MTT antiproliferative assay, HepG2; type: cell-based
Procedure: as §1, §2

[6] = mean ± SD from three independent experiments
[7] = Homo sapiens, CNE-2, mean ± SD from three independent experiments
[8] = Homo sapiens, L02, normal liver cell
[9] = Homo sapiens, Bel-7402, mean ± SD from three independent experiments
[10] = Homo sapiens, HepG2, mean ± SD from three independent experiments

IC50 ([1]; Homo sapiens) | IC50 [2, 7] | melting point | IC50 [4, 9] | IC50 [5, 10] | Structure (SMILES) | IC50 [1] | IC50 [2, 6] | IC50 ([3]; normal liver cell) | IC50 [4, 6] | IC50 [5, 6] | IC50 [3, 8] | cytotoxicity on the human normal liver cell (HL-7702), in words [3]
– | – | – | – | – | N.N.[Cl][Pt][Cl] [Cisplatin, cisplatin, reference compound] | 1.94 ± 0.2 µM | 8.75 ± 0.24 µM | 20.8 ± 0.83 µM | 12.7 ± 0.33 µM | 6.42 ± 0.18 µM | – | –
67.88 ± 0.56 µM | 33.4 ± 0.33 µM | 181 to 183.4 °C | 36.4 ± 70 µM | > 100 µM | CC(C)c1ccc2c(c1)CCC1[C@](C)(C(=O)OCc3cn(Cc4ccccc4)nn3)CCC[C@]21C (stereo partly shown) [Compound 3a, (1-benzyl-1H-1,2,3-triazole-4-yl)dehydroabietic acid methyl ester] | – | – | – | – | – | > 100 µM | –
17.8 ± 0.31 µM | 21.4 ± 0.52 µM | 122.4 to 125.8 °C | 18.6 ± 0.82 µM | 25.9 ± 0.27 µM | CC(C)c1ccc2c(c1)CCC1[C@](C)(C(=O)OCc3cn(Cc4ccccc4F)nn3)CCC[C@]21C (stereo partly shown) [Compound 3b, [1-(2-fluorobenzyl)-1H-1,2,3-triazole-4-yl]dehydroabietic acid methyl ester] | – | – | – | – | – | > 100 µM | –
20.1 ± 0.54 µM | 10.9 ± 0.21 µM | 175.7 to 178.3 °C | 16.72 ± 0.06 µM | 5.9 ± 0.41 µM | CC(C)c1ccc2c(c1)CCC1[C@](C)(C(=O)OCc3cn(Cc4cccc(F)c4)nn3)CCC[C@]21C (stereo partly shown) [Compound 3c, [1-(3-fluorobenzyl)-1H-1,2,3-triazole-4-yl]dehydroabietic acid methyl ester] | – | – | – | – | – | > 100 µM | lower cytotoxicity
22.3 ± 0.35 µM | 12.2 ± 0.33 µM | 183 to 186.3 °C | 14.8 µM | 20.6 ± 0.09 µM | CC(C)c1ccc2c(c1)CCC1[C@](C)(C(=O)OCc3cn(Cc4ccc(F)cc4)nn3)CCC[C@]21C (stereo partly shown) [Compound 3d, [1-(4-fluorobenzyl)-1H-1,2,3-triazole-4-yl]dehydroabietic acid methyl ester] | – | – | – | – | – | > 100 µM | –
44.28 ± 0.43 µM | 74.88 ± 0.14 µM | 80.6 to 84.3 °C | 25.1 ± 0.32 µM | 45.08 ± 0.33 µM | CC(C)c1ccc2c(c1)CCC1[C@](C)(C(=O)OCc3cn(Cc4ccccc4Cl)nn3)CCC[C@]21C (stereo partly shown) [Compound 3e, [1-(2-chlorobenzyl)-1H-1,2,3-triazole-4-yl]dehydroabietic acid methyl ester] | – | – | – | – | – | > 100 µM | –
53.78 ± 0.32 µM | 59.03 ± 0.28 µM | 153.2 to 155.5 °C | 26.09 ± 0.15 µM | 22.3 ± 0.35 µM | CC(C)c1ccc2c(c1)CCC1[C@](C)(C(=O)OCc3cn(Cc4cccc(Cl)c4)nn3)CCC[C@]21C (stereo partly shown) [Compound 3f, [1-(3-chlorobenzyl)-1H-1,2,3-triazole-4-yl]dehydroabietic acid methyl ester] | – | – | – | – | – | > 100 µM | –
> 100 µM | 60.7 ± 66 µM | 176.9 to 179.2 °C | 38 ± 0.48 µM | > 100 µM | CC(C)c1ccc2c(c1)CCC1[C@](C)(C(=O)OCc3cn(Cc4ccc(Cl)cc4)nn3)CCC[C@]21C (stereo partly shown) [Compound 3g, [1-(4-chlorobenzyl)-1H-1,2,3-triazole-4-yl]dehydroabietic acid methyl ester] | – | – | – | – | – | > 100 µM | –
25.9 ± 0.2 µM | 48.3 ± 0.27 µM | 95.1 to 97.3 °C | 27.3 ± 0.36 µM | 35.42 ± 0.21 µM | CC(C)c1ccc2c(c1)CCC1[C@](C)(C(=O)OCc3cn(Cc4ccccc4Br)nn3)CCC[C@]21C (stereo partly shown) [Compound 3h, [1-(2-bromobenzyl)-1H-1,2,3-triazole-4-yl]dehydroabietic acid methyl ester] | – | – | – | – | – | > 100 µM | –
56.08 ± 0.36 µM | 44.14 ± 0.22 µM | 146.1 to 148 °C | 36.88 ± 0.23 µM | 40.7 ± 0.62 µM | CC(C)c1ccc2c(c1)CCC1[C@](C)(C(=O)OCc3cn(Cc4cccc(Br)c4)nn3)CCC[C@]21C (stereo partly shown) [Compound 3i, [1-(3-bromobenzyl)-1H-1,2,3-triazole-4-yl]dehydroabietic acid methyl ester] | – | – | – | – | – | > 100 µM | –
43.18 ± 0.22 µM | > 100 µM | 172.5 to 174 °C | 14.5 ± 0.62 µM | 23.4 ± 0.32 µM | CC(C)c1ccc2c(c1)CCC1[C@](C)(C(=O)OCc3cn(Cc4ccc(Br)cc4)nn3)CCC[C@]21C (stereo partly shown) [Compound 3j, [1-(4-bromobenzyl)-1H-1,2,3-triazole-4-yl]dehydroabietic acid methyl ester] | – | – | – | – | – | > 100 µM | –
> 100 µM | 44.9 ± 0.32 µM | 119.7 to 122.2 °C | 18.6 ± 0.26 µM | 6.25 ± 0.37 µM | CC(C)c1ccc2c(c1)CCC1[C@](C)(C(=O)OCc3cn(Cc4ccccc4[N+](=O)[O-])nn3)CCC[C@]21C (stereo partly shown) [Compound 3k, [1-(2-nitrobenzyl)-1H-1,2,3-triazole-4-yl]dehydroabietic acid methyl ester] | – | – | – | – | – | > 100 µM | lower cytotoxicity
67.37 ± 0.33 µM | 11.5 ± 0.18 µM | 128.5 to 132.3 °C | 15.4 ± 0.51 µM | 15.8 ± 0.64 µM | CC(C)c1ccc2c(c1)CCC1[C@](C)(C(=O)OCc3cn(Cc4cccc([N+](=O)[O-])c4)nn3)CCC[C@]21C (stereo partly shown) [Compound 3l, [1-(3-nitrobenzyl)-1H-1,2,3-triazole-4-yl]dehydroabietic acid methyl ester] | – | – | – | – | – | > 100 µM | –
22.5 ± 0.35 µM | 19.6 ± 0.38 µM | 173.9 to 176.7 °C | 22.81 ± 0.22 µM | > 100 µM | CC(C)c1ccc2c(c1)CCC1[C@](C)(C(=O)OCc3cn(Cc4ccc([N+](=O)[O-])cc4)nn3)CCC[C@]21C (stereo partly shown) [Compound 3m, [1-(4-nitrobenzyl)-1H-1,2,3-triazole-4-yl]dehydroabietic acid methyl ester] | – | – | – | – | – | > 100 µM | –
25.3 ± 0.81 µM | > 100 µM | 130.7 to 132.8 °C | 23.6 ± 0.44 µM | 60.18 ± 0.39 µM | Cc1cccc(Cn2cc(COC(=O)[C@]3(C)CCC[C@]4(C)c5ccc(C(C)C)cc5CCC34)nn2)c1 (stereo partly shown) [Compound 3n, [1-(3-methylbenzyl)-1H-1,2,3-triazole-4-yl]dehydroabietic acid methyl ester] | – | – | – | – | – | > 100 µM | –
42.51 ± 0.37 µM | > 100 µM | 160.4 to 162 °C | 41.9 ± 0.72 µM | 51.78 ± 0.43 µM | Cc1ccc(Cn2cc(COC(=O)[C@]3(C)CCC[C@]4(C)c5ccc(C(C)C)cc5CCC34)nn2)cc1 (stereo partly shown) [Compound 3o, [1-(4-methylbenzyl)-1H-1,2,3-triazole-4-yl]dehydroabietic acid methyl ester] | – | – | – | – | – | > 100 µM | –
24.66 ± 0.16 µM | 80.98 ± 0.78 µM | 106.5 to 108 °C | 25.03 ± 0.22 µM | > 100 µM | COc1cccc(Cn2cc(COC(=O)[C@]3(C)CCC[C@]4(C)c5ccc(C(C)C)cc5CCC34)nn2)c1 (stereo partly shown) [Compound 3p, [1-(3-methoxybenzyl)-1H-1,2,3-triazole-4-yl]dehydroabietic acid methyl ester] | – | – | – | – | – | > 100 µM | –
37.4 ± 0.64 µM | – | – | – | 80.4 ± 0.84 µM | CC(C)c1ccc2c(c1)CC[C@H]1[C@](C)(C(=O)O)CCC[C@]21C [DHAA, dehydroabietic acid] | – | – | – | – | – | > 100 µM | –
